Data published in US20110166121A1 (LG LIFE SCIENCES LTD., priority 2008, published 2011).

Tests used:
[1] = test system: Human platelet aggregation caused by ADP; assay: Inhibition of ADP-induced platelet aggregation (Mimic-human PRP); format: cell-based; conditions: 20 μM ADP, human platelet concentrate diluted with PPP, absorption at 595 nm
Procedure, shortened: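 Ki came from non-linear sigmoidal fits of inhibition, measured as the 3-min rise in absorbance at 595 nm after 20 μM ADP, relative to 0/20 μM ADP controls. Platelets (3–4×10^8/mL in PPP-diluted human PRP) were exposed to 0.01–30 μM compound for 20 min at room temperature beforehand.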

Human P2Y12 receptor = molecular target: T1, Human P2Y12 receptor (Homo sapiens, UniProt Q9H244); assay: Human P2Y12 receptor cell membrane binding assay with [3H] 2-Mes-ADP; conditions: 1 nM [3H] 2-Mes-ADP, membranes of HEK cells expressing P2Y12 receptor; read-out: Binding activity (IC50)
T1 construct: expressed in transfected cells; host or cells: HEK cells
T1 sequence (Q9H244 whole entry): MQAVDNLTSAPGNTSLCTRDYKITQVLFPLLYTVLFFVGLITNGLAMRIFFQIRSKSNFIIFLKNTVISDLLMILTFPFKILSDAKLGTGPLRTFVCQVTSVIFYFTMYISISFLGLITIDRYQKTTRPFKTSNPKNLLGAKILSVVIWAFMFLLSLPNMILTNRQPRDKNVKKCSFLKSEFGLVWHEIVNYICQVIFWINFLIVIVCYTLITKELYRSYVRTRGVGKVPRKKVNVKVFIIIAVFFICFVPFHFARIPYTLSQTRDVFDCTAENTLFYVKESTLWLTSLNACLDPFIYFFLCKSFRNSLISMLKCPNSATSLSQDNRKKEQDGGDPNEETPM
Procedure, shortened: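 Competition binding used 1 nM [3H]2-MeS-ADP on P2Y12-expressing HEK cell membranes for 1 h at room temperature, followed by filtration and scintillation counting.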

CCCc1cc2c(N3CCn4c(nnc4C(F)(F)F)C3)nc(-c3nnc(C)o3)nc2s1 [Example 4-32, 7-[2-(5-Methyl-[1,3,4]oxadiazol-2-yl)-6-propyl-thieno[2,3-d]pyrimidin-4-yl]-3-trifluoromethyl-5,6,7,8-tetrahydro-[1,2,4]triazolo[4,3-a]pyrazine]
Ki [1]: 150 nM
IC50 (Human P2Y12 receptor): 230 nM

CCCc1cc2c(N3CCn4c(nnc4C(F)(F)F)C3)nc(OCCCO)nc2s1 [Example 3-10, 3-[6-Propyl-4-(3-trifluoromethyl-5,6-dihydro-8H-[1,2,4]triazolo[4,3-a]pyrazin-7-yl)-thieno[2,3-d]pyrimidin-2-yloxy]-propan-1-ol]
Ki [1]: 64 nM
IC50 (Human P2Y12 receptor): 140 nM

CCCc1cc2c(N3CCn4c(C)nnc4C3)nc(OCC(O)CO)nc2s1 (centres unmarked) [Example 6-15, 3-[4-(3-Methyl-5,6-dihydro-8H-[1,2,4]triazolo[4,3-a]pyrazin-7-yl)-6-propyl-thieno[2,3-d]pyrimidin-2-yloxy]-propane-1,2-diol]
Ki [1]: 190 nM
IC50 (Human P2Y12 receptor): 400 nM

CCCc1cc2c(N3CCn4c(nnc4C(F)(F)F)C3)nc(Cc3nc(C(=O)OCC)cs3)nc2s1 [Example 4-57, 2-[6-Propyl-4-(3-trifluoromethyl-5,6-dihydro-8H-[1,2,4]triazolo[4,3-a]pyrazin-7-yl)-thieno[2,3-d]pyrimidin-2-ylmethyl]-thiazole-4-carboxylic acid ethyl ester]
Ki [1]: 280 nM
IC50 (Human P2Y12 receptor): 240 nM

CCCc1cc2c(N3CCn4c(nnc4C(F)(F)F)C3)nc(N3CCC(=NOC)C3)nc2s1 [Example 1-20, 1-[6-Propyl-4-(3-trifluoromethyl-5,6-dihydro-8H-[1,2,4]triazolo[4,3-a]pyrazin-7-yl)-thieno[2,3-d]pyrimidin-2-yl]-pyrrolidin-3-one O-methyloxime]
Ki [1]: 190 nM
IC50 (Human P2Y12 receptor): 163 nM

CCCc1cc2c(N3CCn4c(nnc4C(F)(F)F)C3)nc(OCCNC(=O)CCCS(N)(=O)=O)nc2s1 [Example 3-67, N-{2-[6-Propyl-4-(3-trifluoromethyl-5,6-dihydro-8H-[1,2,4]triazolo[4,3-a]pyrazin-7-yl)-thieno[2,3-d]pyrimidin-2-yloxy]-ethyl}-4-sulfamoyl-butyramide]
Ki [1]: 17 nM
IC50 (Human P2Y12 receptor): 90 nM

CCCc1cc2c(N3CCn4c(nnc4C(F)(F)F)C3)nc(N3CCN(C(=O)CO)CC3)nc2s1 [Example 1-9, 2-Hydroxy-1-{4-[6-propyl-4-(3-trifluoromethyl-5,6-dihydro-8H-[1,2,4]triazolo[4,3-a]pyrazin-7-yl)-thieno[2,3-d]pyrimidin-2-yl]-piperazin-1-yl}-ethanone]
Ki [1]: 500 nM
IC50 (Human P2Y12 receptor): 70 nM

CCCc1cc2c(N3CCn4c(nnc4C(F)(F)F)C3)nc(C3=N[C@H](C(=O)OC)CS3)nc2s1 [Example 4-47, (R)-2-[6-Propyl-4-(3-trifluoromethyl-5,6-dihydro-8H-[1,2,4]triazolo[4,3-a]pyrazin-7-yl)thieno[2,3-d]pyrimidin-2-yl]-4,5-dihydro-thiazole-4-carboxylic acid methyl ester]
Ki [1]: 13 nM
IC50 (Human P2Y12 receptor): 24 nM

CCCCc1cc2c(N3CCn4c(nnc4C(F)(F)F)C3)nc(N3CCNC(=O)C3)nc2s1 [Example 2-14, 4-[6-Butyl-4-(3-trifluoromethyl-5,6-dihydro-8H-[1,2,4]triazolo[4,3-a]pyrazin-7-yl)-thieno[2,3-d]pyrimidin-2-yl]-piperazin-2-one]
Ki [1]: 329 nM
IC50 (Human P2Y12 receptor): 100 nM

CCCc1cc2c(N3CCn4c(nnc4C(F)(F)F)C3)nc(N3CCCC(C(=O)O)C3)nc2s1 (centres unmarked) [Example 1-46, 1-[6-Propyl-4-(3-trifluoromethyl-5,6-dihydro-8H-[1,2,4]triazolo[4,3-a]pyrazin-7-yl)-thieno[2,3-d]pyrimidin-2-yl]-piperidine-3-carboxylic acid]
Ki [1]: 58 nM
IC50 (Human P2Y12 receptor): 21 nM

CCCc1cc2c(N3CCn4c(nnc4C(F)(F)F)C3)nc(-n3ccc4ccccc43)nc2s1 [Example 1-73, 7-(2-Indol-1-yl-6-propyl-thieno[2,3-d]pyrimidin-4-yl)-3-trifluoromethyl-5,6,7,8-tetrahydro-[1,2,4]triazolo[4,3-a]pyrazine]
Ki [1]: > 4000 nM
IC50 (Human P2Y12 receptor): 360 nM

CCCCOc1nc(N2CCn3c(nnc3C(F)(F)F)C2)c2cc(CCC)sc2n1 [Example 3-17, 7-(2-Butoxy-6-propyl-thieno[2,3-d]pyrimidin-4-yl)-3-trifluoromethyl-5,6,7,8-tetrahydro-[1,2,4]triazolo[4,3-a]pyrazine]
Ki [1]: 3200 nM
IC50 (Human P2Y12 receptor): 110 nM

CCCc1cc2c(N3CCn4c(nnc4C(F)(F)F)C3)nc(N3CCCC(C(=O)OC(C)C)C3)nc2s1 (centres unmarked) [Example 1-47, 1-[6-Propyl-4-(3-trifluoromethyl-5,6-dihydro-8H-[1,2,4]triazolo[4,3-a]pyrazin-7-yl)-thieno[2,3-d]pyrimidin-2-yl]-piperidine-3-carboxylic acid isopropyl ester]
Ki [1]: 1900 nM
IC50 (Human P2Y12 receptor): 280 nM

CCCc1cc2c(N3CCn4c(nnc4C(F)(F)F)C3)nc(C(=O)N3CCCC(C(=O)O)C3)nc2s1 (centres unmarked) [Example 4-15, 1-[6-Propyl-4-(3-trifluoromethyl-5,6-dihydro-8H-[1,2,4]triazolo[4,3-a]pyrazin-7-yl)thieno[2,3-d]pyrimidine-2-carbonyl]piperidine-3-carboxylic acid]
Ki [1]: 690 nM
IC50 (Human P2Y12 receptor): 630 nM

CCCc1cc2c(N3CCn4c(nnc4C(F)(F)F)C3)nc(N3CC[C@H](NC(=O)Cc4c[nH]cn4)C3)nc2s1 [Example 1-120, 2-(1H-Imidazol-4-yl)-N-{(S)-1-[6-propyl-4-(3-trifluoromethyl-5,6-dihydro-8H-[1,2,4]triazolo[4,3-a]pyrazin-7-yl)-thieno[2,3-d]pyrimidin-2-yl]-pyrrolidin-3-yl}-acetamide]
Ki [1]: 16 nM
IC50 (Human P2Y12 receptor): 38 nM

CCCc1cc2c(N3CCn4c(nnc4C(F)(F)F)C3)nc(Sc3ncccn3)nc2s1 [Example 3-53, 7-[6-Propyl-2-(pyrimidin-2-ylsulfanyl)-thieno[2,3-d]pyrimidin-4-yl]-3-trifluoromethyl-5,6,7,8-tetrahydro-[1,2,4]triazolo[4,3-a]pyrazine]
Ki [1]: 760 nM
IC50 (Human P2Y12 receptor): 570 nM

CCCc1cc2c(N3CCn4c(nnc4C(F)(F)F)C3)nc(OCc3nc(CC(=O)OCC)co3)nc2s1 [Example 3-18, {2-[6-Propyl-4-(3-trifluoromethyl-5,6-dihydro-8H-[1,2,4]triazolo[4,3-a]pyrazin-7-yl)-thieno[2,3-d]pyrimidin-2-yloxymethyl]-oxazol-4-yl}-acetic acid ethyl ester]
Ki [1]: 4300 nM
IC50 (Human P2Y12 receptor): 400 nM

CCCc1cc2c(N3CCn4c(nnc4C(F)(F)F)C3)nc(C(=O)N3CCCC(C(=O)OCC)C3)nc2s1 (centres unmarked) [Example 4-14, 1-[6-Propyl-4-(3-trifluoromethyl-5,6-dihydro-8H-[1,2,4]triazolo[4,3-a]pyrazin-7-yl)thieno[2,3-d]pyrimidine-2-carbonyl]piperidine-3-carboxylic acid ethyl ester]
Ki [1]: 460 nM
IC50 (Human P2Y12 receptor): 1290 nM

CCc1cc2c(N3CCn4c(C)nnc4C3)nc(OCC(O)CO)nc2s1 (centres unmarked) [Example 6-13, 3-[6-Ethyl-4-(3-methyl-5,6-dihydro-8H-[1,2,4]triazolo[4,3-a]pyrazin-7-yl)-thieno[2,3-d]pyrimidin-2-yloxy]-propane-1,2-diol]
Ki [1]: 716 nM
IC50 (Human P2Y12 receptor): 2460 nM

CCCc1cc2c(N3CCn4c(nnc4C(F)(F)F)C3)nc(N3CCCC(O)C3)nc2s1 (centres unmarked) [Example 1-27, 1-[6-Propyl-4-(3-trifluoromethyl-5,6-dihydro-8H-[1,2,4]triazolo[4,3-a]pyrazin-7-yl)-thieno[2,3-d]pyrimidin-2-yl]-piperidin-3-ol]
Ki [1]: 72 nM
IC50 (Human P2Y12 receptor): 56 nM

CCCc1cc2c(N3CCn4c(nnc4C(F)(F)F)C3)nc(N3CCN(C)C(=O)C3)nc2s1 [Example 1-25, 1-Methyl-4-[6-propyl-4-(3-trifluoromethyl-5,6-dihydro-8H-[1,2,4]triazolo[4,3-a]pyrazin-7-yl)-thieno[2,3-d]pyrimidin-2-yl]-piperazin-2-one]
Ki [1]: 100 nM
IC50 (Human P2Y12 receptor): 32 nM

CCCc1cc2c(N3CCn4c(nnc4C(F)(F)F)C3)nc(N3CC[C@H](NC(=O)c4ccccn4)C3)nc2s1 [Example 1-111, Pyridine-2-carboxylic Acid {(S)-1-[6-propyl-4-(3-trifluoromethyl-5,6-dihydro-8H-[1,2,4]triazolo[4,3-a]pyrazin-7-yl)-thieno[2,3-d]pyrimidin-2-yl]-pyrrolidin-3-yl}-amide]
Ki [1]: 590 nM
IC50 (Human P2Y12 receptor): 150 nM

CCCc1cc2c(N3CCn4c(nnc4C(F)(F)F)C3)nc(-c3nnc(CO)o3)nc2s1 [Example 4-36, {5-[6-Propyl-4-(3-trifluoromethyl-5,6-dihydro-8H-[1,2,4]triazolo[4,3-a]pyrazin-7-yl)thieno[2,3-d]pyrimidin-2-yl]-[1,3,4]oxadiazol-2-yl}methanol]
Ki [1]: 300 nM
IC50 (Human P2Y12 receptor): 250 nM

CCCc1cc2c(N3CCn4c(nnc4C(F)(F)F)C3)nc(N[C@@H]3C[C@H](OCCO)[C@@H](O)[C@H]3O)nc2s1 [Example 1-33, (1S,2S,3S,5R)-3-(2-Hydroxy-ethoxy)-5-[6-propyl-4-(3-trifluoromethyl-5,6-dihydro-8H-[1,2,4]triazolo[4,3-a]pyrazin-7-yl)-thieno[2,3-d]pyrimidin-2-ylamino]-cyclopentane-1,2-diol]
Ki [1]: 250 nM
IC50 (Human P2Y12 receptor): 780 nM

CCCc1cc2c(N3CCn4c(nnc4C(F)(F)F)C3)nc(Nc3ccccc3)nc2s1 [Example 1-36, Phenyl-[6-propyl-4-(3-trifluoromethyl-5,6-dihydro-8H-[1,2,4]triazolo[4,3-a]pyrazin-7-yl)-thieno[2,3-d]pyrimidin-2-yl]-amine]
Ki [1]: 1200 nM
IC50 (Human P2Y12 receptor): 170 nM
